Experimental findings from patent US10807986B2, “Fused pyrimidine compound or salt thereof” (TAIHO PHARMACEUTICAL CO., LTD., priority 2016, dated 2020) are described below.

For one series, the system named is TT cells (human thyroid cancer cell line with RET activating mutation). Nature of the series: In vivo antitumor effect, mice subcutaneously implanted with TT cells. Further details: species or system BALB/cA Jcl-nu/nu male mice. The following applies: 100 mg/kg/day oral for 14 days, day 15, Table 54.
Method: Human thyroid cancer cell lines (TT) were subcutaneously implanted into the right frank of 6- to 7-week-old BALB/cA Jcl-nu/nu male mice. After about 2 to 3 weeks from the cell implantation, the length (mm) and the width (mm) of tumors found in mouse bodies were measured. […] The day on which the mice were divided into groups was determined to be the “grouping day” (day 0 or 1).
A control group was administered a solvent (0.5% HPMC/0.1N HCl).
To determine the index of the antitumor effect, TV of each drug-administrated group was measured on day 15, and the tumor volume on day 15 relative to the tumor volume on the grouping day (day 0 or 1) (relative tumor volume: RTV) and T/C (%) were calculated from the following equations, and the antitumor effect was evaluated. […] TV (mm^3)=(length×width^2)/2 RTV=(TV on day 15)/(TV on day 0 or day 1) T/C(%)=(the mean RTV of a test compound treatment group)/(the mean RTV of the control group)×100
`COCc1ccc(NC(=O)c2c(C#CCN3CCOCC3)n(C3(C)CC3)c3ncnc(N)c23)cc1` [Example 85, 4-amino-N-[4-(methoxymethyl)phenyl]-7-(1-methylcyclopropyl)-6-(3-morpholinoprop-1-yn-1-yl)-7H-pyrrolo[2,3-d]pyrimidine-5-carboxamide]: the “T/C (%)” value is recorded as 23% and the “TV (mm^3) Day 15 Mean ± SE” value was 139.42 mm^3.

Staying with this series, now noted: 100 mg/kg/day oral for 14 days, day 15 relative to day 0, Table 54.
With `COCc1ccc(NC(=O)c2c(C#CCN3CCOCC3)n(C3(C)CC3)c3ncnc(N)c23)cc1` [Example 85, 4-amino-N-[4-(methoxymethyl)phenyl]-7-(1-methylcyclopropyl)-6-(3-morpholinoprop-1-yn-1-yl)-7H-pyrrolo[2,3-d]pyrimidine-5-carboxamide], the “RTV Day 15 Mean ± SE” value was found to be 0.87.

Still in this series, the particulars now being: 100 mg/kg/day oral, grouping day (day 0), Table 54.
With `COCc1ccc(NC(=O)c2c(C#CCN3CCOCC3)n(C3(C)CC3)c3ncnc(N)c23)cc1` [Example 85, 4-amino-N-[4-(methoxymethyl)phenyl]-7-(1-methylcyclopropyl)-6-(3-morpholinoprop-1-yn-1-yl)-7H-pyrrolo[2,3-d]pyrimidine-5-carboxamide], the “TV (mm^3) Day 0 Mean ± SE” value worked out at 169.45 mm^3.

Test system in another series: not listed separately
In words: Evaluation of stability in liver microsome. The following applies: mouse liver microsome 0.25 mg/mL, test compound 1 μM, 37° C., 30 minutes.
Method: Solutions of the test compounds in DMSO/acetonitrile (the final concentration of each test compound was 1 μM, the final concentration of DMSO was 0.01%, and the final concentration of acetonitrile was 1%) were individually added to a liver microsome mixture solution (mouse liver microsome with a final concentration of 0.25 mg/mL, a potassium phosphate buffer with a final concentration of 100 mM, and magnesium chloride with a final concentration of 3 mM), and each mixture was pre-incubated at 37° C. for 5 minutes. […] After incubation at 37° C. for 30 minutes, a double amount of ethanol was added thereto to terminate the reaction, thereby obtaining post-reaction samples. A double amount of ethanol was added to each of the remaining mixture solutions, and a NADPH-generating system was further added thereto, thereby obtaining pre-reaction samples. The pre-reaction samples and post-reaction samples were centrifuged at 2000×g, and their supernatant was filtered through a glass filter. Each filtrate was then introduced into LC-MS/MS, and MS/MS peaks of the test compounds were detected. From the ratio of the post-reaction MS/MS peak to the pre-reaction MS/MS peak of the test compounds, the percentage of the remaining test compounds (remaining %) was calculated.
Regarding `COCc1ccc(NC(=O)c2c(-c3ccc(F)nc3)n(C3(C)CC3)c3ncnc(N)c23)cc1` [Example 190, 4-amino-6-(6-fluoropyridin-3-yl)-N-(4-(methoxymethyl)phenyl)-7-(1-methylcyclopropyl)-7H-pyrrolo[2,3-d]pyrimidine-5-carboxamide], the “Remaining (%)” value came out at 58%.

Turning to `COCc1ccc(NC(=O)c2c(C#CCC3CCOCC3)n(C3(C)CC3)c3ncnc(N)c23)cc1` [Example 152, 4-amino-N-(4-(methoxymethyl)phenyl)-7-(1-methylcyclopropyl)-6-(3-(tetrahydro-2H-pyran-4-yl)prop-1-yn-1-yl)-7H-pyrrolo[2,3-d]pyrimidine-5-carboxamide], the “Remaining (%)” value is given as 57%.

`COCc1ccc(NC(=O)c2c(C#Cc3cncn3C)n(C3(C)CC3)c3ncnc(N)c23)cc1` [Example 93, 4-amino-N-(4-(methoxymethyl)phenyl)-6-((1-methyl-1H-imidazol-5-yl)ethynyl)-7-(1-methylcyclopropyl)-7H-pyrrolo[2,3-d]pyrimidine-5-carboxamide]: the “Remaining (%)” value is on record as 53%.

On to `COCc1ccc(NC(=O)c2cn(C3(CF)CC3)c3ncnc(N)c23)cc1` [Example 45, 4-amino-7-(1-(fluoromethyl)cyclopropyl)-N-(4-(methoxymethyl)phenyl)-7H-pyrrolo[2,3-d]pyrimidine-5-carboxamide], for which the “Remaining (%)” value was found to be 66%.

Consider `CCc1c(C(=O)Nc2ccc(COC)cc2)c2c(N)ncnc2n1C1(C)CC1` [Example 207, 4-amino-6-ethyl-N-(4-(methoxymethyl)phenyl)-7-(1-methylcyclopropyl)-7H-pyrrolo[2,3-d]pyrimidine-5-carboxamide], for which the “Remaining (%)” value turned out to be 72%.

Take `COCc1ccc(NC(=O)c2cn(C3(C4CC4)CC3)c3ncnc(N)c23)cc1` [Example 49, 7-{[1,1-bi(cyclopropane)]-1-yl}-4-amino-N-(4-(methoxymethyl)phenyl)-7H-pyrrolo[2,3-d]pyrimidine-5-carboxamide]: the “Remaining (%)” value was 67%.

On to `COCc1ccc(NC(=O)c2c(OCC3CCCO3)n(C3(C)CC3)c3ncnc(N)c23)cc1` (stereo not drawn) [Example 135, 4-amino-N-(4-(methoxymethyl)phenyl)-7-(1-methylcyclopropyl)-6-((tetrahydrofuran-2-yl)methoxy)-7H-pyrrolo[2,3-d]pyrimidine-5-carboxamide], for which the “Remaining (%)” value was found to be 67%.

In the case of `COCc1ccc(NC(=O)c2c(OCC3CCCCO3)n(C3(C)CC3)c3ncnc(N)c23)cc1` (stereo not drawn) [Example 102, 4-amino-N-(4-(methoxymethyl)phenyl)-7-(1-methylcyclopropyl)-6-((tetrahydro-2H-pyran-2-yl)methoxy)-7H-pyrrolo[2,3-d]pyrimidine-5-carboxamide], the “Remaining (%)” value was 60%.

As to `COCc1ccc(NC(=O)c2c(C#Cc3cccc(NCc4ccncc4)c3)n(C3(C)CC3)c3ncnc(N)c23)cc1` [Example 122, 4-amino-N-(4-(methoxymethyl)phenyl)-7-(1-methylcyclopropyl)-6-((3-((pyridin-4-ylmethyl)amino)phenyl)ethynyl)-7H-pyrrolo[2,3-d]pyrimidine-5-carboxamide], the “Remaining (%)” value was 62%.

For the compound `COCc1ccc(NC(=O)c2c(C#Cc3cnc4cccnn34)n(C3(C)CC3)c3ncnc(N)c23)cc1` [Example 91, 4-amino-6-(imidazo[1,2-b]pyridazin-3-ylethynyl)-N-[4-(methoxymethyl)phenyl]-7-(1-methylcyclopropyl)-7H-pyrrolo[2,3-d]pyrimidine-5-carboxamide], the “Remaining (%)” value is on record as 65%.

Take `COCc1ccc(NC(=O)c2c(F)n(C3(C)CC3)c3ncnc(N)c23)cc1` [Example 69, 4-amino-6-fluoro-N-(4-(methoxymethyl)phenyl)-7-(1-methylcyclopropyl)-7H-pyrrolo[2,3-d]pyrimidine-5-carboxamide]: the “Remaining (%)” value came to 69%.

Regarding `COCc1ccc(NC(=O)c2c(/C=C/CO)n(C3(C)CC3)c3ncnc(N)c23)cc1` [Example 109, (E)-4-amino-6-(3-hydroxyprop-1-en-1-yl)-N-(4-(methoxymethyl)phenyl)-7-(1-methylcyclopropyl)-7H-pyrrolo[2,3-d]pyrimidine-5-carboxamide], the “Remaining (%)” value stood at 68%.

On to `COCc1ccc(NC(=O)c2c(C#CCC3(O)CCC3)n(C3(C)CC3)c3ncnc(N)c23)cc1` [Example 103, 4-amino-6-(3-(1-hydroxycyclobutyl)prop-1-yn-1-yl)-N-(4-(methoxymethyl)phenyl)-7-(1-methylcyclopropyl)-7H-pyrrolo[2,3-d]pyrimidine-5-carboxamide], for which the “Remaining (%)” value turned out to be 60%.

For `COCc1ccc(NC(=O)c2c(C#CC3CCN(C)CC3)n(C3(C)CC3)c3ncnc(N)c23)cc1` [Example 183, 4-amino-N-(4-(methoxymethyl)phenyl)-7-(1-methylcyclopropyl)-6-((1-methylpiperidin-4-yl)ethynyl)-7H-pyrrolo[2,3-d]pyrimidine-5-carboxamide], the “Remaining (%)” value is recorded as 77%.

For `COCc1ccc(NC(=O)c2c(C#Cc3c(C)noc3C)n(C3(C)CC3)c3ncnc(N)c23)cc1` [Example 184, 4-amino-6-((3,5-dimethylisoxazol-4-yl)ethynyl)-N-(4-(methoxymethyl)phenyl)-7-(1-methylcyclopropyl)-7H-pyrrolo[2,3-d]pyrimidine-5-carboxamide], the “Remaining (%)” value is on record as 58%.

As to `COCc1ccc(NC(=O)c2c(C#CCN(C)C)n(C3(C)CC3)c3ncnc(N)c23)cc1` [Example 198, 4-amino-6-(3-(dimethylamino)prop-1-yn-1-yl)-N-(4-(methoxymethyl)phenyl)-7-(1-methylcyclopropyl)-7H-pyrrolo[2,3-d]pyrimidine-5-carboxamide], the “Remaining (%)” value worked out at 57%.

Turning to `COCc1ccc(NC(=O)c2c(-c3cn[nH]c3)n(C3(C)CC3)c3ncnc(N)c23)cc1` [Example 167, 4-amino-N-(4-(methoxymethyl)phenyl)-7-(1-methylcyclopropyl)-6-(1H-pyrazol-4-yl)-7H-pyrrolo[2,3-d]pyrimidine-5-carboxamide], the “Remaining (%)” value was 80%.

Take `COCc1ccc(NC(=O)c2c(-c3cncnc3)n(C3(C)CC3)c3ncnc(N)c23)cc1` [Example 194, 4-amino-N-(4-(methoxymethyl)phenyl)-7-(1-methylcyclopropyl)-6-(pyrimidin-5-yl)-7H-pyrrolo[2,3-d]pyrimidine-5-carboxamide]: the “Remaining (%)” value amounted to 67%.

Turning to `COCc1ccc(NC(=O)c2c(-c3ccc(O)cc3)n(C3(C)CC3)c3ncnc(N)c23)cc1` [Example 148, 4-amino-6-(4-hydroxyphenyl)-N-(4-(methoxymethyl)phenyl)-7-(1-methylcyclopropyl)-7H-pyrrolo[2,3-d]pyrimidine-5-carboxamide], the “Remaining (%)” value is listed as 61%.

Test system in the next series: not given
Assay: not given
As to conditions: mouse, microsomes, 0.5 h, 1 μM.
In the case of `C/C=C/c1ccc(NC(=O)c2c(OCC)n(C3(C)CC3)c3ncnc(N)c23)cc1` [Example 117, (E)-4-amino-6-ethoxy-7-(1-methylcyclopropyl)-N-(4-(prop-1-en-1-yl)phenyl)-7H-pyrrolo[2,3-d]pyrimidine-5-carboxamide], the “Remaining (%)” value came out at 53%.
